Experimental data taken from ChEMBL document CHEMBL1201862, “PubChem BioAssay data set” (2004).
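Method: 48-hour compound exposure of cells in 96-well plates, five concentrations, linear interpolation of endpoints. Here, GI50 denotes the concentration required for 50% inhibition of growth.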 Active and inactive are the calls of the source. Rule as the data show it: active = GI50 up to about 1.1 µM and inactive = higher.

Tests used:
Test in all cases: NCI anticancer screen, dose series, 48 h
A549 = tested on: A549
LXFL 529 = tested on: LXFL 529
CCRF-CEM = tested on: CCRF-CEM
U-251 = tested on: U-251
K562 = tested on: K562
OVCAR-5 = tested on: OVCAR-5
SK-OV-3 = tested on: SK-OV-3
OVCAR-3 = tested on: OVCAR-3
HT-29 = tested on: HT-29
SK-MEL-5 = tested on: SK-MEL-5
UO-31 = tested on: UO-31
RPMI-8226 = tested on: RPMI-8226
LOX IMVI = tested on: LOX IMVI
SR = tested on: SR
MDA-MB-231 = tested on: MDA-MB-231
SK-MEL-28 = tested on: SK-MEL-28
MDA-N = tested on: MDA-N
BT-549 = tested on: BT-549
SNB-75 = tested on: SNB-75
OVCAR-4 = tested on: OVCAR-4

SMILES | GI50 (A549) | GI50 (LXFL 529) | GI50 (CCRF-CEM) | GI50 (U-251) | GI50 (K562) | GI50 (OVCAR-5) | GI50 (SK-OV-3) | GI50 (OVCAR-3) | GI50 (HT-29) | GI50 (SK-MEL-5) | GI50 (UO-31) | GI50 (RPMI-8226) | GI50 (LOX IMVI) | GI50 (SR) | GI50 (MDA-MB-231) | GI50 (SK-MEL-28) | GI50 (MDA-N) | GI50 (BT-549) | GI50 (SNB-75) | GI50 (OVCAR-4)
COc1ccc2c(c1)CC[C@@H]1C2CC[C@]2(C)C(=O)NC(=O)CC12 (stereo not given in full) | > 100 µM (inactive) | 59.3 µM (inactive) | 88.3 µM (inactive) | > 100 µM (inactive) | 25.2 µM (inactive) | > 100 µM (inactive) | > 100 µM (inactive) | > 100 µM (inactive) | 56.2 µM (inactive) | 78.3 µM (inactive) | 97.7 µM (inactive) | > 100 µM (inactive) | > 100 µM (inactive) | – | – | – | – | – | – | –
C[C@]12CCC(=O)C=C1CC[C@@H]1[C@@H]2[C@@H](O)C[C@@]2(C)[C@H]1CC[C@]2(O)C(=O)CO [HYDROCORTISONE] | > 100 µM (inactive) | – | 18.7 µM (inactive) | > 100 µM (inactive) | > 100 µM (inactive) | > 100 µM (inactive) | > 100 µM (inactive) | > 100 µM (inactive) | > 100 µM (inactive) | > 100 µM (inactive) | > 100 µM (inactive) | 0.34 µM (active) | > 100 µM (inactive) | > 100 µM (inactive) | > 100 µM (inactive) | > 100 µM (inactive) | > 100 µM (inactive) | > 100 µM (inactive) | > 100 µM (inactive) | > 100 µM (inactive)
COc1ccc(OC)c(N2C(=O)/C(=C\c3ccccc3)SC2c2cc(OC)c(OC)c(OC)c2)c1 (stereo not given) | > 85.7 µM (inactive) | – | 49.5 µM (inactive) | > 100 µM (inactive) | 50.9 µM (inactive) | > 93.3 µM (inactive) | > 100 µM (inactive) | 62.4 µM (inactive) | > 87.3 µM (inactive) | > 91.6 µM (inactive) | > 89.7 µM (inactive) | 71.4 µM (inactive) | > 100 µM (inactive) | 33.7 µM (inactive) | > 100 µM (inactive) | > 100 µM (inactive) | 22 µM (inactive) | 68.4 µM (inactive) | 26.2 µM (inactive) | > 91.8 µM (inactive)
CC(C)(C)OC(=O)NCCNC(=O)CN(CC(=O)O)C1CCCCC1N(CC(=O)O)CC(=O)O (stereo not given) | > 100 µM (inactive) | – | > 100 µM (inactive) | > 100 µM (inactive) | > 100 µM (inactive) | > 100 µM (inactive) | > 100 µM (inactive) | > 100 µM (inactive) | > 100 µM (inactive) | > 100 µM (inactive) | > 100 µM (inactive) | > 100 µM (inactive) | > 100 µM (inactive) | > 100 µM (inactive) | > 100 µM (inactive) | > 100 µM (inactive) | > 100 µM (inactive) | > 100 µM (inactive) | > 100 µM (inactive) | > 100 µM (inactive)
Cc1cc(C)c(S(=O)(=O)N2CCCN(S(=O)(=O)c3c(C)cc(C)cc3C)OCCCON(S(=O)(=O)c3c(C)cc(C)cc3C)CCCN(S(=O)(=O)c3c(C)cc(C)cc3C)OCCCO2)c(C)c1 | > 100 µM (inactive) | – | > 100 µM (inactive) | > 100 µM (inactive) | > 100 µM (inactive) | > 100 µM (inactive) | > 100 µM (inactive) | > 100 µM (inactive) | > 100 µM (inactive) | > 100 µM (inactive) | > 100 µM (inactive) | 67.3 µM (inactive) | > 100 µM (inactive) | > 100 µM (inactive) | > 100 µM (inactive) | > 100 µM (inactive) | > 100 µM (inactive) | > 100 µM (inactive) | 70.3 µM (inactive) | > 100 µM (inactive)
COc1cc2c3c(c4ccc(OC)c(OC)c4c2cc1OC)CN1CCC[C@@H]1C3 [TYLOCREBRINE] | 0.0251 µM (active) | – | 0.0269 µM (active) | 0.019 µM (active) | 0.0191 µM (active) | 0.0745 µM (active) | 0.124 µM (active) | 0.107 µM (active) | 0.0208 µM (active) | 0.0292 µM (active) | < 0.01 µM (active) | 0.0325 µM (active) | 0.0249 µM (active) | 0.0365 µM (active) | 0.0204 µM (active) | 0.0307 µM (active) | 0.0622 µM (active) | 0.0914 µM (active) | < 0.01 µM (active) | 0.0301 µM (active)
C[C@]12CC[C@@H]3c4cc(OCC(F)(F)F)c(O)cc4CC[C@H]3[C@@H]1CC[C@@H]2O | 5.41 µM (inactive) | – | 1.51 µM (inactive) | 2.22 µM (inactive) | 0.438 µM (active) | 18.7 µM (inactive) | 1.69 µM (inactive) | 0.459 µM (active) | 4.06 µM (inactive) | 3.38 µM (inactive) | 8.65 µM (inactive) | 1.17 µM (inactive) | 2.94 µM (inactive) | 0.335 µM (active) | 0.536 µM (active) | 11.8 µM (inactive) | 0.287 µM (active) | 18.4 µM (inactive) | 1.63 µM (inactive) | 17.9 µM (inactive)
COC1C=COC2(C)Oc3c(C)c(O)c4c(c3C2=O)/C(=N/C2CCC(O)OC2C)C=C(NC(=O)/C(C)=C\C(=O)C2CC2C(O)C(C)C(O)C(C)C(OC(C)=O)C1C)C4=O (stereo not given) | 3.48 µM (inactive) | – | 0.474 µM (active) | 2.77 µM (inactive) | 2.22 µM (inactive) | 2.88 µM (inactive) | 7.96 µM (inactive) | 0.365 µM (active) | 1.15 µM (inactive) | 1.95 µM (inactive) | 2.52 µM (inactive) | 0.962 µM (active) | 1.61 µM (inactive) | 1.7 µM (inactive) | 2.07 µM (inactive) | 2.05 µM (inactive) | 1.88 µM (inactive) | 2.44 µM (inactive) | 3.09 µM (inactive) | 3.09 µM (inactive)
c1cncc(CNCc2cccnc2)c1 | > 100 µM (inactive) | – | 49.2 µM (inactive) | > 100 µM (inactive) | > 100 µM (inactive) | > 100 µM (inactive) | > 100 µM (inactive) | > 100 µM (inactive) | > 100 µM (inactive) | > 100 µM (inactive) | > 100 µM (inactive) | > 100 µM (inactive) | > 100 µM (inactive) | > 100 µM (inactive) | > 100 µM (inactive) | > 100 µM (inactive) | > 100 µM (inactive) | > 100 µM (inactive) | > 100 µM (inactive) | > 100 µM (inactive)
COc1cc2c(cc1OC)C(OC)N(C)c1c-2ccc2cc3c(cc12)OCO3 (stereo not given) | 0.201 µM (active) | – | 0.653 µM (active) | 0.356 µM (active) | 1.75 µM (inactive) | 1.42 µM (inactive) | 0.916 µM (active) | 1.5 µM (inactive) | 1.38 µM (inactive) | 1.8 µM (inactive) | 18.1 µM (inactive) | 1.47 µM (inactive) | 5.36 µM (inactive) | 0.506 µM (active) | 1.4 µM (inactive) | 4.28 µM (inactive) | 13.6 µM (inactive) | 3.06 µM (inactive) | 0.708 µM (active) | 4.93 µM (inactive)
Nc1ccc(-c2ccc(Nc3cc(S(=O)(=O)O)c(N)c4c3C(=O)c3ccccc3C4=O)cc2)c(S(=O)(=O)O)c1 | > 100 µM (inactive) | – | > 100 µM (inactive) | > 100 µM (inactive) | > 100 µM (inactive) | > 100 µM (inactive) | > 100 µM (inactive) | > 100 µM (inactive) | > 100 µM (inactive) | > 100 µM (inactive) | > 100 µM (inactive) | > 100 µM (inactive) | > 100 µM (inactive) | > 100 µM (inactive) | > 100 µM (inactive) | > 100 µM (inactive) | > 100 µM (inactive) | > 100 µM (inactive) | > 100 µM (inactive) | > 100 µM (inactive)
c1ccc2oc(-c3ccc(-c4nc5ccccc5o4)c4c3CC4)nc2c1 | > 100 µM (inactive) | – | > 100 µM (inactive) | > 100 µM (inactive) | > 100 µM (inactive) | > 100 µM (inactive) | > 100 µM (inactive) | > 100 µM (inactive) | > 100 µM (inactive) | > 100 µM (inactive) | > 100 µM (inactive) | > 100 µM (inactive) | > 100 µM (inactive) | > 100 µM (inactive) | > 100 µM (inactive) | > 100 µM (inactive) | > 100 µM (inactive) | > 100 µM (inactive) | > 100 µM (inactive) | > 100 µM (inactive)
CC[C@H](C)[C@H]1NC(=O)[C@@H](NC(=O)[C@@H](CC(C)C)N(C)CC2CCCN2C(=O)C(C)=O)[C@@H](C)OC(=O)[C@H](Cc2ccc(OC)cc2)N(C)C(=O)C2CCCN2C(=O)[C@H](CC(C)C)NC(=O)[C@@H](C)C(=O)[C@H](C(C)C)OC(=O)C[C@@H]1O (stereo not given in full) | 0.00356 µM (active) | – | < 0.0025 µM (active) | < 0.0025 µM (active) | 0.00531 µM (active) | 0.00393 µM (active) | 0.00376 µM (active) | 0.00324 µM (active) | 0.00255 µM (active) | 0.00311 µM (active) | 0.00893 µM (active) | 0.00313 µM (active) | 0.00291 µM (active) | 0.00251 µM (active) | 0.00432 µM (active) | 0.0049 µM (active) | 0.00508 µM (active) | 0.0047 µM (active) | 0.00317 µM (active) | < 0.0025 µM (active)
CCCCCCCC(=O)OC[n+]1ccc(-c2c(COC(=O)NC(C)C)c(COC(=O)NC(C)C)c3n2CCC3)cc1 | 63.8 µM (inactive) | – | 13.5 µM (inactive) | 51.5 µM (inactive) | 34.4 µM (inactive) | > 96.6 µM (inactive) | 63.1 µM (inactive) | > 62.7 µM (inactive) | 42.6 µM (inactive) | 34.8 µM (inactive) | 42.4 µM (inactive) | 22.1 µM (inactive) | 20.1 µM (inactive) | 5.65 µM (inactive) | 48.8 µM (inactive) | > 100 µM (inactive) | > 94.8 µM (inactive) | > 52.7 µM (inactive) | 42.3 µM (inactive) | 38.6 µM (inactive)
